From patent publication US7105516B2, “Compounds for the treatment of premature ejaculation” (Bristol-Myers Squibb Company, priority 2002, dated 2006)
Like-named read-outs stand apart in the source and are kept apart here. Values belong to the molecule of their own block, whether it stands above or below them.

Legend:
[1] = molecular target: T1, human serotonin transporters (Homo sapiens, UniProt P31645); assay: Serotonin Transporter Binding Assay ([3H]-citalopram displacement, HEK-hSERT cell membranes); conditions: 1 nM [3H]-citalopram, 1 hr at 25° C.
T1 construct: expressed in transfected cells; membrane homogenates
T1 sequence (P31645 whole entry): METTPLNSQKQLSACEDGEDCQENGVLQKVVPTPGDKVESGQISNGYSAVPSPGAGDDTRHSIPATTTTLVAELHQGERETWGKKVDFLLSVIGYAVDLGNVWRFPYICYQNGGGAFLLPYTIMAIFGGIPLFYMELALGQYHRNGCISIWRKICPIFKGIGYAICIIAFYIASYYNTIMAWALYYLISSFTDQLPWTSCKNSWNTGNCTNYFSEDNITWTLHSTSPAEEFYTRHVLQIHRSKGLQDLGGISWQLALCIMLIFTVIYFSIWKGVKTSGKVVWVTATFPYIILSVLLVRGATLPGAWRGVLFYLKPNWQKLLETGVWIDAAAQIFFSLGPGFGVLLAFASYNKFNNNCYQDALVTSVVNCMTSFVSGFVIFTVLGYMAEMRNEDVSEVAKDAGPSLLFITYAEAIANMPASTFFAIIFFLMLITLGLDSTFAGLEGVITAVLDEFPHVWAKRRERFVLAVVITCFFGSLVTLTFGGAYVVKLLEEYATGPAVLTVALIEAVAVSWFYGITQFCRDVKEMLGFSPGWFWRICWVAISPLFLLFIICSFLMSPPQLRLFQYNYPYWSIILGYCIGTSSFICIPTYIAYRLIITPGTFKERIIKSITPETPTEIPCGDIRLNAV
Method: HEK-293 cells that stably express human serotonin transporters (HEK-hSERT cells) were grown at 37° C. in 5% CO2 as a monolayer in medium consisting of EMEM supplemented with 10% fetal bovine serum and G418 sulfate (500 μg/mL). […] Cells were transferred from plates to polypropylene tubes (16×100 mm), centrifuged at 1,200×g for 5 min and were frozen at −80° C. until assay. Following centrifugation, pellets were resuspended by homogenization in buffer consisting of 50 mM Tris (pH 7.7 at 25° C.), 120 mM NaCl and 5 mM KCl and then centrifuged at 32,000×g for 10 min. Following centrifugation, supernatants were discarded and pellets were resuspended in buffer consisting of 50 mM Tris (pH 7.4 at 25° C.), 150 mM NaCl and 5 mM KCl. Membrane homogenates (200 μl/plate) were incubated with 1 nM [^3H]-citalopram (specific activity=85 Ci/mMol) and increasing concentrations of test compounds for 1 hr at 25° C. in a total volume of 250 μl. The assay buffer consisted of 50 mM Tris (pH 7.4 at 25° C.), 120 mM NaCl and 5 mM KCl (pH 7.4 with conc. HCl). Plates were incubated for 1 hr at 25° C., then filtered through 0.5% PEI treated Whatman GF/B filters using a Brandel cell harvester. Filters were washed three times with 3 mL of ice-cold tris wash buffer. Non-specific binding was defined with 10 μM fluoxetine. Amount of radioligand bound in the presence and absence of competitor was analyzed by plotting (−)log drug concentration versus the amount of radioligand specifically bound. The midpoint of the displacement curve (IC50, nM), signifies the potency.

[2] = molecular target: T2, human norepinephrine transporters (Homo sapiens, UniProt P23975); assay: Norepinephrine Transporter Binding Assay ([3H]-nisoxetine displacement, hNET cell membranes); conditions: 2.7 nM [3H]-nisoxetine, 1 hr at 4° C., read-out: NE reuptake binding Ki
T2 construct: the text also calls them 'HEK-hNET cells'); membrane homogenates
T2 sequence (P23975 whole entry): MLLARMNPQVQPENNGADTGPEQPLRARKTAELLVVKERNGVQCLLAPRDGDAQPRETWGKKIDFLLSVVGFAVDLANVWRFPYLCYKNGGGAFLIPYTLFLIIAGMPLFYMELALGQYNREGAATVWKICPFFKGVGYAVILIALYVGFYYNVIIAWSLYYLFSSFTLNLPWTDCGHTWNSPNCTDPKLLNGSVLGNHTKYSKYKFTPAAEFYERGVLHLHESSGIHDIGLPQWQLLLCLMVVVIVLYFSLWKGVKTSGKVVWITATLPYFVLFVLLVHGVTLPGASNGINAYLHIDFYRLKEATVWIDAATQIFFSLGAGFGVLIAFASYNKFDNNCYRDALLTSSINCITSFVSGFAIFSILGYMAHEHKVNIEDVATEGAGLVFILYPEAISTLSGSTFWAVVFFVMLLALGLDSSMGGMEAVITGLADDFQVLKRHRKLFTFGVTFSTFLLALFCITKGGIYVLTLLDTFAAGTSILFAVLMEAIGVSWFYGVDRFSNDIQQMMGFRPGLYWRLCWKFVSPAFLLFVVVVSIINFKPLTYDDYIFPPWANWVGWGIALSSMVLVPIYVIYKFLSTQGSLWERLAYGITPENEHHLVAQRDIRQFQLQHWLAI
Method: MDCK cells that stably express human norepinephrine transporters (HEK-hNET cells) were supplied by Receptor Biology, Inc. Pellets were resuspended by homogenization in buffer consisting of 50 mM Tris (pH 7.4 at 25° C.), 120 mM NaCl and 5 mM KCl. Membrane homogenates (200 μl/well, 8 ug protein) were incubated with 2.7 nM [^3H]-nisoxetine (specific activity=80 Ci/mMol) and increasing concentrations of test compounds for 1 hr at 4° C. in a total volume of 250 μl. The assay buffer consisted of 50 mM Tris (pH 7.4 at 25° C.), 120 mM NaCl and 5 mM KCl (pH 7.4 with conc. HCl). Plates were incubated for 1 hr at 4° C., then filtered through 0.5% PEI treated Whatman GF/B filters using a Brandel cell harvester. Filters were washed three times with 3 mL of ice-cold tris wash buffer. Non-specific binding was defined with 10 μM desipramine. Amount of radioligand bound in the presence and absence of competitor was analyzed by plotting (−)log drug concentration versus the amount of radioligand specifically bound. The midpoint of the displacement curve (IC50, nM), signifies the potency. Ki values were calculated using the method of Cheng and Prusoff (1973).

[3] = read-out: 5-HT reuptake binding Ki

SMILES: CNC1CCCC1Cc1c[nH]c2ccc(C#N)cc12 (stereo not shown) [Example 55, 3-(2-Methylamino-cyclopentylmethyl)-1H-indole-5-carbonitrile]
Ki [1, 3]: 1 to 10 nM

SMILES: CN(C)C[C@H]1CCC[C@@H]1c1cn(C)c2ccc(C#N)cc12 (relative stereo) [Example 32, Trans-3-(2-dimethylaminomethyl-cyclopentyl)-1-methyl-1H-indole-5-carbonitrile]
Ki ([1]; 5-HT reuptake binding Ki): 1 to 10 nM
Ki [2]: > 1000 nM

SMILES: CCNC[C@H]1CCC[C@@H]1c1ccc2[nH]cc(C#N)c2c1 (relative stereo) [Example 37, Trans-5-(ethylaminomethyl-cyclopentyl)-1H-indole-3-carbonitrile]
Ki [1, 3]: 100 to 500 nM
Ki [2]: > 1000 nM

SMILES: CC([C@H]1CCCC1c1c[nH]c2ccc(C#N)cc12)N(C)C (single isomer, unassigned) [Example 49]
Ki [1, 3]: < 1 nM

SMILES: CN(C)C[C@H]1CCC[C@@H]1c1c[nH]c2ccc(C#N)cc12 (single isomer, unassigned; enantiomerb) [Example 45]
Ki ([1]; 5-HT reuptake binding Ki): < 1 nM
Ki [2]: > 1000 nM

SMILES: CCNC[C@H]1CCC[C@@H]1c1c[nH]c2ccc(C#N)cc12 (relative stereo) [Example 27, Trans-3-(2-ethylaminomethyl-cyclopentyl)-1H-indole-5-carbonitrile]
Ki ([1]; 5-HT reuptake binding Ki): 10 to 100 nM
Ki [2]: > 1000 nM

SMILES: CCC([C@H]1CCC[C@@H]1c1c[nH]c2ccc(C#N)cc12)N(C)C (mixture of isomers) [Example 50, (+/−) trans-3-[2-(1-dimethylaminopropyl)cyclopentyl]-1H-indole-5-carbonitrile,diastereomer A]
Ki [1, 3]: 10 to 100 nM

SMILES: CCNC1CCCC1Cc1c[nH]c2ccc(C#N)cc12 (stereo not shown) [Example 56, 3-(2-Ethylamino-cyclopentylmethyl)-1H-indole-5-carbonitrile]
Ki [1, 3]: 1 to 10 nM

SMILES: CCN(CC)C[C@H]1CCC[C@@H]1c1ccc2[nH]cc(C#N)c2c1 (relative stereo) [Example 39, Trans-5-(diethylaminomethyl-cyclopentyl)-1H-indole-3-carbonitrile]
Ki [1, 3]: 100 to 500 nM
Ki [2]: > 1000 nM

SMILES: CN(C)C1CCCC1Cc1c[nH]c2ccc(C#N)cc12 (mixture of isomers) [Example 54, 3-(2-Dimethylamino-cyclopentylmethyl)-1H-indole-5-carbonitrile]
Ki [1, 3]: 1 to 10 nM

SMILES: CCN(C)C[C@H]1CCC[C@@H]1c1ccc2[nH]cc(C#N)c2c1 (relative stereo) [Example 38, Trans-5-{2-[(ethyl-methyl-amino)-methyl]-cyclopentyl}-1H-indole-3-carbonitrile]
Ki [1, 3]: 100 to 500 nM
Ki [2]: > 1000 nM

SMILES: CCN(C)C1CCCC1Cc1c[nH]c2ccc(C#N)cc12 (stereo not shown) [Example 58, 3-[2-(Ethyl-methyl-amino)-cyclopentylmethyl]-1H-indole-5-carbonitrile]
Ki [1, 3]: 1 to 10 nM

SMILES: CNC[C@H]1CCC[C@@H]1c1ccc2[nH]cc(C#N)c2c1 (relative stereo) [Example 35, Trans-5-(2-methylaminomethyl-cyclopentyl)-1H-indole-3-carbonitrile]
Ki [1, 3]: 1 to 10 nM
Ki [2]: > 1000 nM

SMILES: N#Cc1c[nH]c2ccc([C@H]3CCC[C@@H]3CN3CCCC3)cc12 (relative stereo) [Example 36, Trans-5-(2-pyrrolidin-1-ylmethyl-cyclopentyl)-1H-indole-3-carbonitrile]
Ki [1, 3]: 100 to 500 nM
Ki [2]: > 1000 nM

SMILES: CC([C@H]1CCCC1c1c[nH]c2ccc(C#N)cc12)N(C)C (single isomer, unassigned) [Example 48]
Ki [1, 3]: 10 to 100 nM

Ki [1, 3]: 1 to 10 nM
SMILES: CN(C)C[C@@H]1CCC[C@@H]1c1ccc2[nH]cc(C#N)c2c1 (relative stereo) [Example 43, Cis-5-(dimethylaminomethyl-cyclopentyl)-1H-indole-3-carbonitrile]

SMILES: CN(C)C[C@H]1CCC[C@@H]1c1ccc2c(c1)c(C#N)cn2C (relative stereo) [Example 41, Trans-5-(2-dimethylaminomethyl-cyclopentyl)-1-methyl-1H-indole-3-carbonitrile]
Ki [1, 3]: 100 to 500 nM
Ki [2]: > 1000 nM

SMILES: CN(C)C[C@H]1CCC[C@@H]1c1ccc2[nH]cc(C#N)c2c1 (relative stereo) [Example 34, Trans-5-(2-dimethylaminomethyl-cyclopentyl)-1H-indole-3-carbonitrile]
Ki [1, 3]: 1 to 10 nM
Ki [2]: > 1000 nM

SMILES: N#Cc1ccc2[nH]cc([C@H]3CCC[C@@H]3CN3CCCC3)c2c1 (relative stereo) [Example 30, Trans-3-(pyrrolidin-1-ylmethyl-cyclopentyl)-1H-indole-5-carbonitrile]
Ki ([1]; 5-HT reuptake binding Ki): 1 to 10 nM
Ki [2]: > 1000 nM

SMILES: CN(C)C[C@H]1CCC[C@@H]1c1c[nH]c2ccc(C#N)cc12 (racemic) [Example 25, Trans-3-(2-dimethylaminomethyl-cyclopentyl)-1H-indole-5-carbonitrile]
Ki ([1]; 5-HT reuptake binding Ki): < 1 nM
Ki [2]: > 1000 nM

Ki [1, 3]: 10 to 100 nM
Ki [2]: > 1000 nM
SMILES: CN(Cc1ccccc1)C[C@H]1CCC[C@@H]1c1c[nH]c2ccc(C#N)cc12 (relative stereo) [Example 31, Trans-3-{2-[(benzyl-methyl-amino)-methyl]-cyclopentyl}-1H-indole-5-carbonitrile]

SMILES: CCN(CC)C[C@H]1CCC[C@@H]1c1c[nH]c2ccc(C#N)cc12 (relative stereo) [Example 28, Trans-3-(2-diethylaminomethyl-cyclopentyl)-1H-indole-5-carbonitrile]
Ki ([1]; 5-HT reuptake binding Ki): 100 to 500 nM
Ki [2]: > 1000 nM

SMILES: CN(C)C[C@@H]1CCC[C@H]1c1c[nH]c2ccc(C#N)cc12 (single isomer, unassigned; enantiomer a) [Example 44]
Ki ([1]; 5-HT reuptake binding Ki): 10 to 100 nM
Ki [2]: > 1000 nM

SMILES: CCN(CC)C1CCCC1Cc1c[nH]c2ccc(C#N)cc12 (stereo not shown) [Example 57, 3-(2-Diethylamino-cyclopentylmethyl)-1H-indole-5-carbonitrile]
Ki [1, 3]: 10 to 100 nM

SMILES: CC([C@H]1CCCC1c1c[nH]c2ccc(C#N)cc12)N(C)C (single isomer, unassigned; diastereomer b) [Example 47, (+/−) trans-3-[2-(1-dimethylaminoethyl)cyclopentyl]-1H-indole-5-carbonitrile,diastereomer B]
Ki [1, 3]: 1 to 10 nM

Ki [1, 3]: 10 to 100 nM
SMILES: CN(Cc1ccccc1)C1CCCC1Cc1c[nH]c2ccc(C#N)cc12 (stereo not shown) [Example 60, 3-[2-(Benzyl-methyl-amino)-cyclopentylmethyl]-1H-indole-5-carbonitrile]

SMILES: CNC[C@H]1CCC[C@@H]1c1c[nH]c2ccc(C#N)cc12 (relative stereo) [Example 26, Trans-3-(2-methylaminomethyl-cyclopentyl)-1H-indole-5-carbonitrile]
Ki [1, 3]: 1 to 10 nM
Ki [2]: > 1000 nM

Ki [1, 3]: 10 to 100 nM
Ki [2]: 100 to 500 nM
SMILES: CNC[C@@H]1CCC[C@@H]1c1ccc2[nH]cc(C#N)c2c1 (relative stereo) [Example 42, Cis-5-(methylaminomethyl-cyclopentyl)-1H-indole-3-carbonitrile]

SMILES: N#Cc1ccc2[nH]cc(CC3CCCC3N3CCCC3)c2c1 (stereo not shown) [Example 59, 3-(2-Pyrrolidin-1-yl-cyclopentylmethyl)-1H-indole-5-carbonitrile]
Ki [1, 3]: 1 to 10 nM

SMILES: CCN(C)C[C@H]1CCC[C@@H]1c1c[nH]c2ccc(C#N)cc12 (relative stereo) [Example 29, Trans-3-{2-[(ethyl-methyl-amino)-methyl]-cyclopentyl}-1H-indole-5-carbonitrile]
Ki ([1]; 5-HT reuptake binding Ki): 1 to 10 nM
Ki [2]: > 1000 nM

SMILES: CN(C)C[C@H]1CCC[C@@H]1c1c[nH]c2ccc(I)cc12 [Example 52, (1S,2S)-[2-(5-iodo-1H-indol-3-yl)-cyclopentylmethyl]-dimethylamine]
Ki [1, 3]: 10 to 100 nM

SMILES: CCC([C@H]1CCC[C@@H]1c1c[nH]c2ccc(C#N)cc12)N(C)C (mixture of isomers) [Example 51, (+/−) trans-3-[2-(1-dimethylaminopropyl)cyclopentyl]-1H-indole-5-carbonitrile,diastereomer B]
Ki [1, 3]: 100 to 500 nM

SMILES: CN(Cc1ccccc1)C[C@H]1CCC[C@@H]1c1ccc2[nH]cc(C#N)c2c1 (relative stereo) [Example 40, Trans-5-{2-[(benzyl-methyl-amino)-methyl]-cyclopentyl}-1H-indole-3-carbonitrile]
Ki [1, 3]: 10 to 100 nM
Ki [2]: > 1000 nM
